Reference: US20240294551A1 (AMGEN INC., priority 2022, published 2024)
Structures can show the parent of a compound that is named as a salt. Where two headings read alike, the source gives them in different places. Values belong to the molecule of their own block, whether it stands above or below them.

Key:
[1] = 16-membered ring
[2] = test system: Phosphorylation of ERK1/2 in AsPC-1 cells; experiment: Phospho-ERK1/2 MSD Assay; type: cell-based, human; settings: read-out: 2 h p-ERK (AsPC-1 cells), IC50
How it was run: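 Read-out: MSD electrochemiluminescent detection of phosphorylated ERK1/2 in whole-cell lysates, fitted to a 4-parameter logistic curve for IC50. Prior to lysis, AsPC-1 cells (25,000 per well) received a 2 h compound dose-response at 37 °C.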

[3] = target: His-tagged KRAS G12D protein (Homo sapiens (Human), UniProt P01116, G12D); experiment: KRAS G12D TR-FRET Assay; type: binding; settings: read-out: KRAS G12D Binding IC50
How it was run: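 His-tagged KRAS G12D (diluted to 20 nM in pH 7.4 HEPES buffer with 10 mM MgCl2 and 10 μM GDP) was preincubated with titrated compound for 30 min at room temperature. Biotinylated KRPep-2d peptide (diluted to 20 nM) was then added for 1 h, and displacement was monitored by TR-FRET.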

[4] = target: GDP-bound KRAS protein (aa 1-169), containing both G12D and C118A amino acid substitutions (Homo sapiens (Human), UniProt P01116, C118A/G12D); experiment: KRAS G12D Coupled Nucleotide Exchange Assay; type: biochemical; settings: read-out: KRAS G12D Coupled Exchange IC50
[5] = test system: AsPC-1 cells; experiment: AsPC-1 CTG Assay (CellTiter-Glo cell viability); type: cell-based, human; settings: AsPC-1, 72 h, first value of the cell, read-out: G12D/C/V Cell Proliferation CTG (72 h) AsPC-1
How it was run: (§1)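 Human pancreatic AsPC-1 or colon SW620 cells in RPMI 1640 with 10% FBS, seeded overnight, then exposed to serially diluted compound for 72 h at 37 °C. CellTiter-Glo luminescence normalized to DMSO control; IC50 from a 4-parameter logistic model.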

[6] = test system: SW620 cells; experiment: SW620 CTG Assay (CellTiter-Glo cell viability); type: cell-based, human; settings: SW620, 72 h, third value of the cell, read-out: G12D/C/V Cell Proliferation CTG (72 h) SW620
How it was run: as §1

[7] = test system: MIA PaCa-2 cells; experiment: MIA PaCa-2 CTG Assay (CellTiter-Glo cell viability); type: cell-based, human; settings: Homo sapiens; Mia PaCa-2, 72 h; second value of the cell; read-out: G12D/C/V Cell Proliferation CTG (72 h) Mia PaCa-2
How it was run: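 Human pancreatic carcinoma cells in RPMI 1640 with 10% FBS, seeded at 1.67E+04 cells/mL and left overnight, were treated with serially diluted compound for 72 h at 37° C, 5% CO2. Viability was read by CellTiter-Glo luminescence normalized to DMSO; IC50 came from a 4-parameter logistic fit.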

[8] = test system: p-ERK in PANC 04.03 tumor-bearing mice; experiment: Tumor Pharmacodynamic Assay (p-ERK inhibition in PANC 04.03 tumors); type: in vivo; settings: Mus musculus; PANC 04.03 tumor-bearing female athymic nude mice; single oral dose 100 mg/kg; tumors harvested 2 hr later; relative to vehicle group
Protocol: Tumor Pharmacodynamic Assays
Inhibitor pharmacodynamic effects were assessed in PANC 04.03 tumor-bearing mice. PANC 04.03 tumor cells (5.0E+06 cells) were injected subcutaneously into the flank of female athymic nude mice in a mixture with Matrigel (BD Bioscience). Mice received a single oral dose of either vehicle or inhibitor (100 mg/kg) when the average tumor size reached -300-600 mm^3 (n=3/group) and harvested 2 hours later. Tumor samples were collected, snap frozen, and processed for analysis by pulverizing with a cryoPREP® Dry Impactor (Covaris). Pulverized samples were resuspended in RIPA lysis buffer containing protease and phosphatase inhibitors and homogenized. Cleared lysates were analyzed using phospho-ERK1/2 and total ERK1/2 whole cell lysate kits (Meso Scale Discovery) according to the manufacturer's protocol. Phospho-ERK1/2 signal was normalized to total ERK1/2 signal for a given sample, and percent inhibition of p-ERK was calculated relative to the vehicle group.

Sequence of GDP-bound KRAS protein (aa 1-169), containing both G12D and C118A amino acid substitutions (P01116 other isoform, or with tags, fused parts or gaps G12D/C118A): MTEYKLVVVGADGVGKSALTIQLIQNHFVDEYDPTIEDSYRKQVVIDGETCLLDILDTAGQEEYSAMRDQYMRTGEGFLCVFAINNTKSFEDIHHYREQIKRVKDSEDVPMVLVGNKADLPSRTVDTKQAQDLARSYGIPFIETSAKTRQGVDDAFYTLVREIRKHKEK
Sequence of His-tagged KRAS G12D protein (P01116 other isoform, or with tags, fused parts or gaps G12D): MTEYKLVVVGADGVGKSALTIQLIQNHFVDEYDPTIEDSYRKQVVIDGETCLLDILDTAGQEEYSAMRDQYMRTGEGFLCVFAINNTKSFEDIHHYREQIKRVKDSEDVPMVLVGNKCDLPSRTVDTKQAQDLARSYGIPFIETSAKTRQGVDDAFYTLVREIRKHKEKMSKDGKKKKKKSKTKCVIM

SMILES: CC(C)(C)OC(=O)n1ncc2c3c(ccc21)OCCCC(=O)O[C@@H]1CCCN(C1)c1nc(OC[C@@]24CCCN2C[C@H](F)C4)nc2c(F)c-3ncc12
ring closure, isolated yield ([1]; from CC(C)(C)OC(=O)n1ncc2c(-c3ncc4c(N5CCC[C@@H](OC(=O)CCCBr)C5)nc(OC[C@@]56CCCN5C[C@H](F)C6)nc4c3F)c(O)ccc21, ether bond, K2CO3, DMF, 17.5 mM): 24%

SMILES: COCOc1cc2c3c(c(F)ccc3c1)CCCC(=O)N[C@]1(C)CCCN(C1)c1nc(OC)nc3c(F)c-2ncc13
ring closure, yield after HPLC (from COCOc1cc(-c2ncc3c(N4CCC[C@@](C)(N)C4)nc(OC)nc3c2F)c2c(CCCC(=O)O)c(F)ccc2c1, amide bond, 16-membered ring, HATU/DIEA, then HCl/dioxane, DMF, 8.3 mM, 25.0 °C, 2 steps): 5%

SMILES: CSc1nc2c3cnc(c(C)c3n1)-c1cc(O)cc3ccc(F)c(c13)CCCC(=O)N[C@]1(C)CCCN2C1
ring closure, yield after HPLC (from CSc1nc(N2CCC[C@@](C)(N)C2)c2cnc(-c3cc(O)cc4ccc(F)c(CCCC(=O)O)c34)c(C)c2n1, amide bond, 16-membered ring, HATU, then Me2NH, DCM/DMA/DMF, 5.6 mM, 25.0 °C, 4.0 h): 32%

SMILES: Cc1cc2c(cnn2C2CCCCO2)c2c1CCC=CCCC1(O)CCCN(C1)c1nc(OC[C@@]34CCCN3C[C@H](F)C4)nc3c(F)c-2ncc13 (stereo partly drawn)
ring closure, isolated yield ([1]; from C=CCCc1c(C)cc2c(cnn2C2CCCCO2)c1-c1ncc2c(N3CCCC(O)(CCC=C)C3)nc(OC[C@@]34CCCN3C[C@H](F)C4)nc2c1F, rcm bond, Hoveyda-Grubbs II (20 mol%)/TsOH, DCE, 1.6 mM, 80.0 °C): 71%

SMILES: Cc1cc2c(cnn2C2CCCCO2)c2c1CCCn1ncc(n1)C1CCCN(C1)c1nc(OC[C@@]34CCCN3C[C@H](F)C4)nc3c(F)c-2ncc13 (stereo partly drawn)
ring closure, isolated yield ([1]; from Cc1cc2c(cnn2C2CCCCO2)c(-c2ncc3c(N4CCCC(c5cn[nH]n5)C4)nc(OC[C@@]45CCCN4C[C@H](F)C5)nc3c2F)c1CCCCl, other bond, K2CO3/TBAI, MeCN, 6.9 mM, 85.0 °C): 31%

SMILES: Fc1c2ncc3c(nc(OC[C@@]45CCCN4C[C@H](F)C5)nc13)N1CCCC3(CC(C3)OCCCCc3c(Cl)cc4[nH]ncc4c3-2)C1
ring closure, yield after HPLC (from Fc1c(-c2c(CCCCOC3CC4(CCCNC4)C3)c(Cl)cc3[nH]ncc23)ncc2c(OCC(F)(F)F)nc(OC[C@@]34CCCN3C[C@H](F)C4)nc12, snar bond, 17-membered ring, Cs2CO3, MeCN/DMF, 5.0 mM, 80.0 °C): 5%

SMILES: Cc1cc2c(cnn2C2CCCCO2)c2c1CC=CCOC[C@@H]1CCCN(C1)c1nc(OC[C@@]34CCCN3C[C@H](F)C4)nc3c(F)c-2ncc13 (mixture of isomers)
ring closure, isolated yield ([1]; from C=CCOC[C@@H]1CCCN(c2nc(OC[C@@]34CCCN3C[C@H](F)C4)nc3c(F)c(-c4c(CC=C)c(C)cc5c4cnn5C4CCCCO4)ncc23)C1, rcm bond, Hoveyda-Grubbs II/TsOH, 1,2-dichloroethane, 2.1 mM, 80.0 °C): 21%

SMILES: O[C@@H]1C[C@@H]2COCCCCc3c(Cl)cc4[nH]ncc4c3-c3ncc4c(nc(OC[C@@]56CCCN5C[C@H](F)C6)nc4c3F)N(C1)C2 (mixture of isomers)
ring closure, isolated yield ([1]; from Oc1nc(OC[C@@]23CCCN2C[C@H](F)C3)nc2c(F)c(-c3c(CCCCOC[C@@H]4CNC[C@H](O)C4)c(Cl)cc4[nH]ncc34)ncc12, snar bond, BroP/DIEA, MeCN/DMSO, 4.7 mM, 25.0 °C): 25%

SMILES: O=C1CCCc2cccc3cc(O)cc(c23)-c2ncc3c(nc(OC[C@@]45CCCN4C[C@H](F)C5)nc3c2F)N2CCC[C@H](C2)N1 [Example 1, (15R)-31-Fluoro-8-(((2R,7aS)-2-fluorotetrahydro-1H-pyrrolo[1,2-a]pyrrol-7a(5H)-yl)methoxy)-27-hydroxy-3,7,9,11,16-pentaazahexacyclo[19.7.1.1˜2,6˜.1˜11,15˜.0˜5,10˜.0˜25,29˜]hentriaconta-1(28),2(31),3,5,7,9,21,23,25(29),26-decaen-17-one bis(2,2,2-trifluoroacetate)]
IC50 ([2]; Homo sapiens, ASPC1, 2 h): 196 nM
ring closure, yield after HPLC (from N[C@@H]1CCCN(c2nc(OC[C@@]34CCCN3C[C@H](F)C4)nc3c(F)c(-c4cc(O)cc5cccc(CCCC(=O)O)c45)ncc23)C1, amide bond, 16-membered ring, HATU/DIEA, then NH3/MeOH, DMF, 8.9 mM, 25.0 °C, 1.0 h): 7%
IC50 [3]: 5 nM
IC50 [4]: 4 nM
IC50 ([5]; Homo sapiens, ASPC1, 72 h): 1930 nM

IC50 [3]: 238 nM
IC50 [4]: 342 nM
SMILES: C[C@@]12CCCN(C1)c1nc(OC[C@@]34CCCN3C[C@H](F)C4)nc3c(F)c(ncc13)-c1cccc3c1N(CCCC(=O)N2)CCC3 [Example 13, (15R)-31-Fluoro-8-(((2R,7aS)-2-fluorotetrahydro-1H-pyrrolo[1,2-a]pyrrol-7a(5H)-yl)methoxy)-15-methyl-3,7,9,11,16,21-hexaazahexacyclo[19.7.1.1˜2,6˜.1˜11,15˜.0˜5,10˜.0˜25,29˜]hentriaconta-1(29),2(31),3,5,7,9,25,27-octaen-17-one bis(2,2,2-trifluoroacetate)]
ring closure, yield after HPLC (from C[C@@]1(N)CCCN(c2nc(OC[C@@]34CCCN3C[C@H](F)C4)nc3c(F)c(-c4cccc5c4N(CCCC(=O)O)CCC5)ncc23)C1, amide bond, 16-membered ring, HATU/TEA, DCM/THF/DMA, 0.98 mM, 25.0 °C): 33%

SMILES: Fc1c2ncc3c(nc(OC[C@@]45CCCN4C[C@H](F)C5)nc13)N1CCO[C@@H](COCCCCc3c(Cl)cc4[nH]ncc4c3-2)C1 [Example 135, (17R)-9-Chloro-30-fluoro-24-(((2R,7aS)-2-fluorotetrahydro-1H-pyrrolo[1,2-a]pyrrol-7a(5H)-yl)methoxy)-15,18-dioxa-5,6,21,23,25,29-hexaazahexacyclo[24.3.1.1˜17,21.0˜2,10˜.0˜3,7˜.0˜22,27˜]hentriaconta-1(30),2,4,7,9,22,24,26,28-nonaene trifluoroacetate]
IC50 ([2]; 2 h): 17 nM
ring closure, yield after HPLC (from Oc1nc(OC[C@@]23CCCN2C[C@H](F)C3)nc2c(F)c(-c3c(CCCCOC[C@H]4CNCCO4)c(Cl)cc4[nH]ncc34)ncc12, snar bond, 16-membered ring, BroP/DIEA, MeCN/DMSO, 4.7 mM, 25.0 °C): 39%
IC50 [3]: 3 nM
IC50 [6]: 55.1 nM
IC50 [4]: 2 nM
IC50 [5]: 250 nM

IC50 ([2]; Homo sapiens, ASPC1, 2 h): 1.3 nM
IC50 [3]: 5 nM
IC50 [7]: 7 nM
IC50 ([6]; Homo sapiens, SW-620): 4 nM
IC50 [4]: 3 nM
IC50 ([5]; Homo sapiens, ASPC1, 72 h): 6 nM
SMILES: Cc1cc2[nH]ncc2c2c1CCOC(=O)O[C@H]1C[C@@]3(CCCN(C3)c3nc(OC[C@@]45CCCN4C[C@H](F)C5)nc4c(F)c-2ncc34)C1 [Example 194, (1S,3R)-32-fluoro-24-(((2R,7aS)-2-fluorotetrahydro-1H-pyrrolo[1,2-a]pyrrol-7a(5H)-yl)methoxy)-10-methyl-4,6-dioxa-13,14,19,23,25,27-hexaazaheptacyclo[25.3.1.1~1,3~.1~18,22~.0~9,17~.0~12,16~.0~21,26~]tritriaconta-9,11,14,16,18(32),19,21,23,25-nonaen-5-one]
inhibition in vivo at 100 mg/kg [8]: 88%

IC50 ([2]; Homo sapiens, ASPC1, 2 h): 0.7 nM
IC50 [3]: 4 nM
IC50 [7]: 2 nM
IC50 ([6]; Homo sapiens, SW-620): 3 nM
IC50 [4]: 1 nM
IC50 ([5]; Homo sapiens, ASPC1, 72 h): 5 nM
SMILES: O=C1OCCc2c(Cl)cc3[nH]ncc3c2-c2ncc3c(nc(OC[C@@]45CCCN4C[C@H](F)C5)nc3c2F)N2CCC[C@]3(C2)C[C@H](C3)O1 [Example 249, (1S,3R)-10-chloro-32-fluoro-24-(((2R,7aS)-2-fluorotetrahydro-1H-pyrrolo[1,2-a]pyrrol-7a(5H)-yl)methoxy)-4,6-dioxa-13,14,19,23,25,27-hexaazaheptacyclo[25.3.1.1~1,3~.1~18,22~.0~9,17~.0~12,16~.0~21,26~]tritriaconta-9,11,14,16,18(32),19,21,23,25-nonaen-5-one]
inhibition in vivo at 100 mg/kg [8]: 90%
